Laboratory results published in patent publication US20250171495A1, “MUTLI-TARGETED SERINE PROTEASE INHIBITORS FOR TREATMENT OF CANCER AND VIRAL INFECTION” (Washington University, priority 2023, published 2025).
Where “and” joins values, the source holds several entries; their conditions need not be identical. Equal values may be shown once.

Columns and labels:
Type in all cases: biochemical
matriptase = molecular target: T1, matriptase (Homo sapiens, UniProt Q9Y5Y6); assay: HyCoSuL P4-P2 substrate specificity screening, matriptase; settings: for P2 Position Substrate Activity for matriptase (percent substrate cleavage/proteolysis): residue fixed at P2 position; for P3 Position Various Amino Acids Substrate Activity, matriptase (percent substrate cleavage/proteolysis): residue fixed at P3 position of substrate library; for P4 Position Various Amino Acids Substrate Activity, matriptase (percent substrate proteolysis/cleavage): residue fixed at P4 position of substrate library; for P3 Position Substrate Activity for matriptase (percent substrate cleavage/proteolysis): residue fixed at P3 position
T1 sequence (Q9Y5Y6 1-855): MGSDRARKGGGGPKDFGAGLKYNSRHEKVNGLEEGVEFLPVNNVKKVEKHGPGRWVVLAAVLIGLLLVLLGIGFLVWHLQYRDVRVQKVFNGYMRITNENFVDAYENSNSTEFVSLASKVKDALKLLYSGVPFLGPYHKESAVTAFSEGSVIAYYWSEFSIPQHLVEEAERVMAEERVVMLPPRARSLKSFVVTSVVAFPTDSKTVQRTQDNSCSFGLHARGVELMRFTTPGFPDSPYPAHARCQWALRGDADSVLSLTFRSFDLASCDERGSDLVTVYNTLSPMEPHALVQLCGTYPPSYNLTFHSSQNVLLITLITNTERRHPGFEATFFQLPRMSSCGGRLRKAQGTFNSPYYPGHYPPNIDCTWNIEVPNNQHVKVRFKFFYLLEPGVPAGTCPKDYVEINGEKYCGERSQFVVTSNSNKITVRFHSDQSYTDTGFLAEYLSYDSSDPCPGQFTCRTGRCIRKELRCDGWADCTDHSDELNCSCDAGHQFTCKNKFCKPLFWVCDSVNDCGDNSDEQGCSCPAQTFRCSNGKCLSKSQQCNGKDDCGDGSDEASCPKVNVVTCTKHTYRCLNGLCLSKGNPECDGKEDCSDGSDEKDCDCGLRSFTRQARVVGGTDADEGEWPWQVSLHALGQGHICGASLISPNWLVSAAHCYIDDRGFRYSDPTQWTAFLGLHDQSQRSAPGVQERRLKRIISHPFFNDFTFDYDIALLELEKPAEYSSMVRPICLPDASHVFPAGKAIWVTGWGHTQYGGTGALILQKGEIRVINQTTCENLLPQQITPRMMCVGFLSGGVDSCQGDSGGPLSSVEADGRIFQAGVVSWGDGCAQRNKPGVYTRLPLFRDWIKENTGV

HGFA = molecular target: T2, HGFA (Homo sapiens, UniProt Q04756); assay: HyCoSuL P4-P2 substrate specificity screening, HGFA; settings: for P2 Position Substrate Activity for HGFA (percent substrate cleavage/proteolysis): residue fixed at P2 position; for P3 Position Various Amino Acids Substrate Activity, HGFA (percent substrate cleavage/proteolysis): residue fixed at P3 position of substrate library; for P4 Position Various Amino Acids Substrate Activity, HGFA (percent substrate proteolysis/cleavage): residue fixed at P4 position of substrate library; for P3 Position Substrate Activity for HGFA (percent substrate cleavage/proteolysis): residue fixed at P3 position
T2 sequence (Q04756 373-655): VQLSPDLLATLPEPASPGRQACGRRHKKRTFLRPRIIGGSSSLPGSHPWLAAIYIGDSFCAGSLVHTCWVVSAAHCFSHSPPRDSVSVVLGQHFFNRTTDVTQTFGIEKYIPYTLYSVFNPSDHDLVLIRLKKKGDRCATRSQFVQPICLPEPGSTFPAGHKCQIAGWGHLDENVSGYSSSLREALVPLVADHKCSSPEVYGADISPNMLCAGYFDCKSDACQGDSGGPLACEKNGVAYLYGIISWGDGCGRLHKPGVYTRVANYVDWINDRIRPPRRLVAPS

TMPRSS2 = TMPRSS2 (Homo sapiens, UniProt O15393); assay: PS-SCL / HyCoSuL substrate specificity screening, TMPRSS2; settings: for P2 Position Substrate Activity for TMPRSS2 (percent substrate cleavage/proteolysis): residue fixed at P2 position of substrate library; for P3 Position Various Amino Acids Substrate Activity, TMPRSS2 (percent substrate cleavage/proteolysis) / P3 Position Substrate Activity for TMPRSS2 (percent substrate cleavage/proteolysis): residue fixed at P3 position of substrate library
TMPRSS2, sequence (O15393 whole entry): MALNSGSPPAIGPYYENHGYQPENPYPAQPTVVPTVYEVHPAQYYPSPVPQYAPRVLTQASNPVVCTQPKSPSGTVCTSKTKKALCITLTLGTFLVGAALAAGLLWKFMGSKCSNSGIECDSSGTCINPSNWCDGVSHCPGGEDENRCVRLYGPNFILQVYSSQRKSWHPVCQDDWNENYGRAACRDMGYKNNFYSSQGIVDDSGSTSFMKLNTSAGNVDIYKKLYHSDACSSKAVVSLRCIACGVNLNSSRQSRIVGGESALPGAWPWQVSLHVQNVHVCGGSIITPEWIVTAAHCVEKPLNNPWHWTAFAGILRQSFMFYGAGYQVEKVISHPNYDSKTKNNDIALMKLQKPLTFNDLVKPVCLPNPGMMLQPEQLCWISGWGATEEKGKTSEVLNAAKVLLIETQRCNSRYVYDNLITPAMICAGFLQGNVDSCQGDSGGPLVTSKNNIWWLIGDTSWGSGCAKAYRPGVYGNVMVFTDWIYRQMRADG

hepsin = molecular target: T3, hepsin (Homo sapiens, UniProt P05981); assay: HyCoSuL P4-P2 substrate specificity screening, hepsin; settings: for P2 Position Substrate Activity for hepsin (percent substrate cleavage/proteolysis): residue fixed at P2 position; for P3 Position Various Amino Acids Substrate Activity, hepsin (percent substrate cleavage/proteolysis): residue fixed at P3 position of substrate library; for P4 Position Various Amino Acids Substrate Activity, hepsin (percent substrate proteolysis/cleavage): residue fixed at P4 position of substrate library; for P3 Position Substrate Activity for hepsin (percent substrate cleavage/proteolysis): residue fixed at P3 position
T3 construct: purchased R&D Systems 4776-SE-010
T3 sequence (P05981 163-417 limits assumed): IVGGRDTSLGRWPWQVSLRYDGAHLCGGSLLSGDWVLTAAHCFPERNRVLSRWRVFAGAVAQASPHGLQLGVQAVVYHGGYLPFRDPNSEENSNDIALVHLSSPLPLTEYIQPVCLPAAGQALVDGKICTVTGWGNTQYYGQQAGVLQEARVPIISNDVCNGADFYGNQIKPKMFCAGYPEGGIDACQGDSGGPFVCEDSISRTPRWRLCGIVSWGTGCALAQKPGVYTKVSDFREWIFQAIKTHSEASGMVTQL
T3 sequence (P05981 1-162 partner limits assumed): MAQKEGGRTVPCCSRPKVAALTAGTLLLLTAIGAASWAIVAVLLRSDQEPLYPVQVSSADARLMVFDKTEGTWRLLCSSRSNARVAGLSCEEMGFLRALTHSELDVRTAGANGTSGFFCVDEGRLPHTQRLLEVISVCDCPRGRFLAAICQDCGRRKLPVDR

[1] = P1-Arg HyCoSuL, 100 μM, best recognized amino acid set to 100%
[2] = best recognized amino acid set to 100%
[3] = residue fixed at P4 position of substrate library
[4] = residue fixed at P4 position, P1-Arg HyCoSuL, 100 μM, best recognized amino acid set to 100%

L-Ala
P2 Position Substrate Activity for matriptase (percent substrate cleavage/proteolysis) (matriptase; [1]): 28%
P3 Position Various Amino Acids Substrate Activity, matriptase (percent substrate cleavage/proteolysis) (matriptase): 34%
P4 Position Various Amino Acids Substrate Activity, matriptase (percent substrate proteolysis/cleavage) (matriptase): 31%
P2 Position Substrate Activity for HGFA (percent substrate cleavage/proteolysis) (HGFA; [1]): 2.37%
P3 Position Various Amino Acids Substrate Activity, HGFA (percent substrate cleavage/proteolysis) (HGFA): 8.97%
P4 Position Various Amino Acids Substrate Activity, HGFA (percent substrate proteolysis/cleavage) (HGFA): 6.68%
P2 Position Substrate Activity for TMPRSS2 (percent substrate cleavage/proteolysis) (TMPRSS2; [2]): 25.14%
P3 Position Various Amino Acids Substrate Activity, TMPRSS2 (percent substrate cleavage/proteolysis) (TMPRSS2): 31.84%
P4 Position Various Amino Acids Substrate Activity, TMPRSS2 (percent substrate proteolysis/cleavage) (TMPRSS2; [3]): 26.30%
P2 Position Substrate Activity for hepsin (percent substrate cleavage/proteolysis) (hepsin; [1]): 17.85%
P3 Position Various Amino Acids Substrate Activity, hepsin (percent substrate cleavage/proteolysis) (hepsin): 28.07%
P4 Position Various Amino Acids Substrate Activity, hepsin (percent substrate proteolysis/cleavage) (hepsin): 41.30%

L-Arg
P2 Position Substrate Activity for matriptase (percent substrate cleavage/proteolysis) (matriptase; [1]): 0%
P3 Position Various Amino Acids Substrate Activity, matriptase (percent substrate cleavage/proteolysis) (matriptase): 70%
P3 Position Substrate Activity for matriptase (percent substrate cleavage/proteolysis) (matriptase; [1]): 62.39% and 70.35%
P4 Position Various Amino Acids Substrate Activity, matriptase (percent substrate proteolysis/cleavage) (matriptase): 100%
P4 Position Substrate Activity for matriptase (percent substrate cleavage/proteolysis) (matriptase; [4]): 100.00%
P2 Position Substrate Activity for HGFA (percent substrate cleavage/proteolysis) (HGFA; [1]): 2.08%
P3 Position Substrate Activity for HGFA (percent substrate cleavage/proteolysis) (HGFA; [1]): 43.98%
P4 Position Substrate Activity for HGFA (percent substrate cleavage/proteolysis) (HGFA; [4]): 23.62%
P2 Position Substrate Activity for TMPRSS2 (percent substrate cleavage/proteolysis) (TMPRSS2; [2]): 5.65%
P3 Position Substrate Activity for TMPRSS2 (percent substrate cleavage/proteolysis) (TMPRSS2; [2]): 27.44%
P4 Position Substrate Activity for TMPRSS2 (percent substrate cleavage/proteolysis) (TMPRSS2; residue fixed at P4 position of substrate library, best recognized amino acid set to 100%): 27.99%
P2 Position Substrate Activity for hepsin (percent substrate cleavage/proteolysis) (hepsin; [1]): 57.23%
P3 Position Substrate Activity for hepsin (percent substrate cleavage/proteolysis) (hepsin; [1]): 70.75%
P4 Position Substrate Activity for hepsin (percent substrate cleavage/proteolysis) (hepsin; [4]): 80.32%

L-Asn
P2 Position Substrate Activity for matriptase (percent substrate cleavage/proteolysis) (matriptase; [1]): 12%
P3 Position Various Amino Acids Substrate Activity, matriptase (percent substrate cleavage/proteolysis) (matriptase): 14%
P4 Position Various Amino Acids Substrate Activity, matriptase (percent substrate proteolysis/cleavage) (matriptase): 10%
P2 Position Substrate Activity for HGFA (percent substrate cleavage/proteolysis) (HGFA; [1]): 4.79%
P3 Position Various Amino Acids Substrate Activity, HGFA (percent substrate cleavage/proteolysis) (HGFA): 6.12%
P4 Position Various Amino Acids Substrate Activity, HGFA (percent substrate proteolysis/cleavage) (HGFA): 8.20%
P2 Position Substrate Activity for TMPRSS2 (percent substrate cleavage/proteolysis) (TMPRSS2; [2]): 9.49%
P3 Position Various Amino Acids Substrate Activity, TMPRSS2 (percent substrate cleavage/proteolysis) (TMPRSS2): 19.47%
P4 Position Various Amino Acids Substrate Activity, TMPRSS2 (percent substrate proteolysis/cleavage) (TMPRSS2; [3]): 21.89%
P2 Position Substrate Activity for hepsin (percent substrate cleavage/proteolysis) (hepsin; [1]): 63.72%
P3 Position Various Amino Acids Substrate Activity, hepsin (percent substrate cleavage/proteolysis) (hepsin): 24.47%
P4 Position Various Amino Acids Substrate Activity, hepsin (percent substrate proteolysis/cleavage) (hepsin): 25.25%

L-Asp
P2 Position Substrate Activity for matriptase (percent substrate cleavage/proteolysis) (matriptase; [1]): 1%
P3 Position Various Amino Acids Substrate Activity, matriptase (percent substrate cleavage/proteolysis) (matriptase): 2%
P4 Position Various Amino Acids Substrate Activity, matriptase (percent substrate proteolysis/cleavage) (matriptase): 1%
P2 Position Substrate Activity for HGFA (percent substrate cleavage/proteolysis) (HGFA; [1]): 1.21%
P3 Position Various Amino Acids Substrate Activity, HGFA (percent substrate cleavage/proteolysis) (HGFA): 2.81%
P4 Position Various Amino Acids Substrate Activity, HGFA (percent substrate proteolysis/cleavage) (HGFA): 1.90%
P2 Position Substrate Activity for TMPRSS2 (percent substrate cleavage/proteolysis) (TMPRSS2; [2]): 9.72%
P3 Position Various Amino Acids Substrate Activity, TMPRSS2 (percent substrate cleavage/proteolysis) (TMPRSS2): 25.70%
P4 Position Various Amino Acids Substrate Activity, TMPRSS2 (percent substrate proteolysis/cleavage) (TMPRSS2; [3]): 7.77%
P2 Position Substrate Activity for hepsin (percent substrate cleavage/proteolysis) (hepsin; [1]): 0.33%
P3 Position Various Amino Acids Substrate Activity, hepsin (percent substrate cleavage/proteolysis) (hepsin): 3.89%
P4 Position Various Amino Acids Substrate Activity, hepsin (percent substrate proteolysis/cleavage) (hepsin): 0.22%

L-Cit
P2 Position Substrate Activity for matriptase (percent substrate cleavage/proteolysis) (matriptase; [1]): 1%
P3 Position Various Amino Acids Substrate Activity, matriptase (percent substrate cleavage/proteolysis) (matriptase): 21%
P4 Position Various Amino Acids Substrate Activity, matriptase (percent substrate proteolysis/cleavage) (matriptase): 18%
P2 Position Substrate Activity for HGFA (percent substrate cleavage/proteolysis) (HGFA; [1]): 6.32%
P3 Position Various Amino Acids Substrate Activity, HGFA (percent substrate cleavage/proteolysis) (HGFA): 13.41%
P4 Position Various Amino Acids Substrate Activity, HGFA (percent substrate proteolysis/cleavage) (HGFA): 6.44%
P2 Position Substrate Activity for TMPRSS2 (percent substrate cleavage/proteolysis) (TMPRSS2; [2]): 0.00%
P3 Position Various Amino Acids Substrate Activity, TMPRSS2 (percent substrate cleavage/proteolysis) (TMPRSS2): 32.80%
P4 Position Various Amino Acids Substrate Activity, TMPRSS2 (percent substrate proteolysis/cleavage) (TMPRSS2; [3]): 33.20%
P2 Position Substrate Activity for hepsin (percent substrate cleavage/proteolysis) (hepsin; [1]): 32.27%
P3 Position Various Amino Acids Substrate Activity, hepsin (percent substrate cleavage/proteolysis) (hepsin): 29.53%
P4 Position Various Amino Acids Substrate Activity, hepsin (percent substrate proteolysis/cleavage) (hepsin): 36.68%

L-Dab
P2 Position Substrate Activity for matriptase (percent substrate cleavage/proteolysis) (matriptase; [1]): 0%
P3 Position Various Amino Acids Substrate Activity, matriptase (percent substrate cleavage/proteolysis) (matriptase): 66%
P3 Position Substrate Activity for matriptase (percent substrate cleavage/proteolysis) (matriptase; [1]): 66.02%
P4 Position Various Amino Acids Substrate Activity, matriptase (percent substrate proteolysis/cleavage) (matriptase): 32%
P2 Position Substrate Activity for HGFA (percent substrate cleavage/proteolysis) (HGFA; [1]): 0.50%
P3 Position Substrate Activity for HGFA (percent substrate cleavage/proteolysis) (HGFA; [1]): 29.40%
P4 Position Various Amino Acids Substrate Activity, HGFA (percent substrate proteolysis/cleavage) (HGFA): 16.76%
P2 Position Substrate Activity for TMPRSS2 (percent substrate cleavage/proteolysis) (TMPRSS2; [2]): 0.00%
P3 Position Substrate Activity for TMPRSS2 (percent substrate cleavage/proteolysis) (TMPRSS2; [2]): 36.73%
P4 Position Various Amino Acids Substrate Activity, TMPRSS2 (percent substrate proteolysis/cleavage) (TMPRSS2; [3]): 12.90%
P2 Position Substrate Activity for hepsin (percent substrate cleavage/proteolysis) (hepsin; [1]): 13.49%
P3 Position Substrate Activity for hepsin (percent substrate cleavage/proteolysis) (hepsin; [1]): 48.55%
P4 Position Various Amino Acids Substrate Activity, hepsin (percent substrate proteolysis/cleavage) (hepsin): 47.53%

L-Dap
P2 Position Substrate Activity for matriptase (percent substrate cleavage/proteolysis) (matriptase; [1]): 9%
P3 Position Various Amino Acids Substrate Activity, matriptase (percent substrate cleavage/proteolysis) (matriptase): 52%
P3 Position Substrate Activity for matriptase (percent substrate cleavage/proteolysis) (matriptase; [1]): 51.80%
P4 Position Various Amino Acids Substrate Activity, matriptase (percent substrate proteolysis/cleavage) (matriptase): 16%
P2 Position Substrate Activity for HGFA (percent substrate cleavage/proteolysis) (HGFA; [1]): 1.49%
P3 Position Substrate Activity for HGFA (percent substrate cleavage/proteolysis) (HGFA; [1]): 24.27%
P4 Position Various Amino Acids Substrate Activity, HGFA (percent substrate proteolysis/cleavage) (HGFA): 13.31%
P2 Position Substrate Activity for TMPRSS2 (percent substrate cleavage/proteolysis) (TMPRSS2; [2]): 4.32%
P3 Position Substrate Activity for TMPRSS2 (percent substrate cleavage/proteolysis) (TMPRSS2; [2]): 43.61%
P4 Position Various Amino Acids Substrate Activity, TMPRSS2 (percent substrate proteolysis/cleavage) (TMPRSS2; [3]): 16.80%
P2 Position Substrate Activity for hepsin (percent substrate cleavage/proteolysis) (hepsin; [1]): 10.01%
P3 Position Substrate Activity for hepsin (percent substrate cleavage/proteolysis) (hepsin; [1]): 48.71%
P4 Position Various Amino Acids Substrate Activity, hepsin (percent substrate proteolysis/cleavage) (hepsin): 35.65%
